# Source: US20230174530A1, “N-(PHENYLAMINOCARBONYL) TETRAHYDRO-ISOQUINOLINES AND RELATED COMPOUNDS AS MODULATORS OF GPR65” (PATHIOS THERAPEUTICS LIMITED, priority 2020, published 2023)
# Molecular target: T1, human recombinant GPR65 (Homo sapiens, UniProt Q8IYL9)
# T1 construct: host or cells: 1321N1 human astrocytoma cells (1321N1-hrGPR65)
# Assay: Human GPR65 cAMP HTRF antagonist assay
# Assay type: cell-based
# Conditions: 1321N1-hrGPR65 cells stimulated at assay pH 7.2; suppression of cAMP rise; read-out: hGPR65 IC50
# Experimental: Human GPR65 Cyclic Adenosine Monophosphate (cAMP) Homogeneous Time Resolved Fluorescence (HTRF) Antagonist Assay Procedure
# IC50 data was obtained by the following procedure:
# 1321N1 human astrocytoma cells stably expressing human recombinant GPR65 (1321N1-hrGPR65 cells, EuroscreenFast) were cultured according to the vendor's instructions.
# Compounds were tested for their ability to antagonise GPR65, through measuring the concentration of cytoplasmic cAMP following treatment of the cells at a pH of 7.2 to activate GPR65 signalling and addition of the compound to be tested. The extent to which the expected rise in cAMP concentration upon GPR65 activation was suppressed by the added compound is indicative of its potency. The assay was carried out according to EuroscreenFast assay methodology as follows.
# On the day of the assay, test compounds were added to 384-well, low volume, white microtiter plates by acoustic dispensing. KRH buffer (5 mM KCl, 1.25 mM MgSO4, 124 mM NaCl, 25 mM HEPES, 13.3 mM Glucose, 1.25 mM KH2PO4 and 1.45 mM CaCl2) was adjusted to pH 6.5, pH 7.6 and pH 8.4 by adding NaOH. 1321N1-hGPR65 cells were rapidly thawed and diluted in KRH, pH 7.6 prior to centrifugation at 300×g for 5 min and resuspension in assay buffer (KRH, pH 7.6, supplemented with 1 mM 3-isobutyl-1-methylxanthine (IBMX) and 200 μM ethylenediaminetetraacetic acid (EDTA)). Cells were added to assay plates at a density of 2,000 cells per well in a volume of 5 μl. Assay plates were briefly centrifuged at 100×g and then incubated at room temperature for 30 min. Cells were stimulated by the addition of 5 μL KRH, pH 6.5, to achieve an assay pH of 7.2, while control wells received 5 μl KRH, pH 8.4 to achieve an assay pH of 7.9. Assay plates were briefly centrifuged at 100×g and then incubated at room temperature for 30 min.
# Accumulation of cAMP was detected by cAMP HTRF kit (Cisbio). d2-labeled cAMP and cryptate-labeled anti-cAMP antibody in Lysis and Detection Buffer (Cisbio) were added to assay plates, and the plates were incubated at room temperature for 1 h. HTRF measurements were performed using a Pherastar FSX instrument. Acceptor and donor emission signals were measured at 665 nm and 620 nm, respectively, and HTRF ratios were calculated as signal665 nm/signal620 nm×10^4. Data were normalised to high and low control values and fitted with 4-parameter logistic regression to determine hGPR65 IC50 values for the test compounds, which are shown in Table 1.
# T1 sequence (Q8IYL9 whole entry): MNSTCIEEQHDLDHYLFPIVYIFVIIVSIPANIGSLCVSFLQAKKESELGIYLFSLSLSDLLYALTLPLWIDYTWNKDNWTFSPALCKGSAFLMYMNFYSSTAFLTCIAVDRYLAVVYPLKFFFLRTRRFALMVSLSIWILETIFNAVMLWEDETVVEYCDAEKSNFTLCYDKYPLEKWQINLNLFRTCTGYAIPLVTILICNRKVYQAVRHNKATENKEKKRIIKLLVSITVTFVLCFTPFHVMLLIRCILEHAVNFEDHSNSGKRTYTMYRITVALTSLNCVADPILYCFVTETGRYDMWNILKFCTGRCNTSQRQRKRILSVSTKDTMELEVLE
row,Compound,IC50 [µM]
1,"O=C(Nc1ccc(Cl)c(Cl)c1)N1CCc2ncncc2C1 [Compound 1, N-(3,4-Dichlorophenyl)-7,8-dihydropyrido[4,3-d]pyrimidine-6(5H)-carboxamide]",0.5 to 5
2,"O=C(Nc1ccc(Cl)cc1)N1CCc2ncncc2C1 [Compound 2, N-(4-Chlorophenyl)-7,8-dihydropyrido[4,3-d]pyrimidine-6(5H)-carboxamide]",> 5
3,"O=C(Nc1cccc(Cl)c1)N1CCc2ncncc2C1 [Compound 3, N-(3-Chlorophenyl)-7,8-dihydropyrido[4,3-d]pyrimidine-6(5H)-carboxamide]",> 5
4,"O=C(Nc1ccc(Cl)c(C(F)(F)F)c1)N1CCc2ncncc2C1 [Compound 5, N-(4-Chloro-3-(trifluoromethyl)phenyl)-7,8-dihydropyrido[4,3-d]pyrimidine-6(5H)-carboxamide]",0.5 to 5
5,"O=C(Nc1ccc(C(F)(F)F)c(Cl)c1)N1CCc2ncncc2C1 [Compound 6, N-(3-Chloro-4-(trifluoromethyl)phenyl)-7,8-dihydropyrido[4,3-d]pyrimidine-6(5H)-carboxamide]",0.5 to 5
6,"O=C(Nc1ccc(Cl)c(Cl)c1)N1CCc2cncnc2C1 [Compound 8, N-(3,4-Dichlorophenyl)-5,8-dihydropyrido[3,4-d]pyrimidine-7(6H)-carboxamide]",> 5
7,"O=C(Nc1ccc(C(F)(F)F)c(Cl)c1)N1CCc2cncnc2C1 [Compound 9, N-(3-Chloro-4-(trifluoromethyl)phenyl)-5,8-dihydropyrido[3,4-d]pyrimidine-7(6H)-carboxamide]",> 5
8,"O=C(Nc1ccc(Cl)c(C(F)(F)F)c1)N1CCc2ccccc2C1 [Compound 11, N-(4-Chloro-3-(trifluoromethyl)phenyl)-3,4-dihydroisoquinoline-2(1H)-carboxamide]",0.5 to 5
9,"O=C(Nc1ccc(Cl)c(C(F)(F)F)c1)N1CCc2cnccc2C1 [Compound 13, N-(4-Chloro-3-(trifluoromethyl)phenyl)-3,4-dihydro-2,6-naphthyridine-2(1H)-carboxamide]",0.5 to 5
10,"O=C(Nc1ccc(C(F)(F)F)c(Cl)c1)N1CCc2cnccc2C1 [Compound 14, N-(3-Chloro-4-(trifluoromethyl)phenyl)-3,4-dihydro-2,6-naphthyridine-2(1H)-carboxamide]",< 0.5
11,"O=C(Nc1ccc(Cl)c(C(F)(F)F)c1)N1CCc2ccncc2C1 [Compound 16, N-(4-Chloro-3-(trifluoromethyl)phenyl)-3,4-dihydro-2,7-naphthyridine-2(1H)-carboxamide]",0.5 to 5
12,"O=C(Nc1ccc(Cl)c(Cl)c1)N1CCc2cccnc2C1 [Compound 18, N-(3,4-Dichlorophenyl)-5,8-dihydro-1,7-naphthyridine-7(6H)-carboxamide]",> 5
13,"O=C(Nc1ccc(Cl)c(Cl)c1)N1CCc2ncccc2C1 [Compound 20, N-(3,4-Dichlorophenyl)-7,8-dihydro-1,6-naphthyridine-6(5H)-carboxamide]",> 5
14,"O=C(Nc1ccc(Cl)c(C(F)(F)F)c1)N1CCc2ncccc2C1 [Compound 21, N-(4-Chloro-3-(trifluoromethyl)phenyl)-7,8-dihydro-1,6-naphthyridine-6(5H)-carboxamide]",> 5
15,"O=C(Nc1ccc(C(F)(F)F)c(Cl)c1)N1CCc2nccnc2C1 [Compound 24, N-(3-Chloro-4-(trifluoromethyl)phenyl)-7,8-dihydropyrido[3,4-b]pyrazine-6(5H)-carboxamide]",> 5
16,"O=C(Nc1ccc(Cl)c(C(F)(F)F)c1)N1CCc2oncc2C1 [Compound 25, N-(4-Chloro-3-(trifluoromethyl)phenyl)-6,7-dihydroisoxazolo[4,5-c]pyridine-5(4H)-carboxamide]",0.5 to 5
17,"Cc1cccc2c1CN(C(=O)Nc1ccc(Cl)c(Cl)c1)CC2 [Compound 27, N-(3,4-Dichlorophenyl)-8-methyl-3,4-dihydroisoquinoline-2(1H)-carboxamide]",0.5 to 5
18,"Cc1cccc2c1CN(C(=O)Nc1ccc(Cl)c(C(F)(F)F)c1)CC2 [Compound 28, N-(4-Chloro-3-(trifluoromethyl)phenyl)-8-methyl-3,4-dihydroisoquinoline-2(1H)-carboxamide]",> 5
19,"Cc1cccc2c1CN(C(=O)Nc1ccc(C(F)(F)F)c(Cl)c1)CC2 [Compound 29, N-(3-Chloro-4-(trifluoromethyl)phenyl)-8-methyl-3,4-dihydroisoquinoline-2(1H)-carboxamide]",0.5 to 5
20,"O=C(Nc1ccc(Cl)c(Cl)c1)N1CCc2ccc(F)cc2C1 [Compound 31, N-(3,4-Dichlorophenyl)-7-fluoro-3,4-dihydroisoquinoline-2(1H)-carboxamide]",< 0.5
21,"O=C(Nc1ccc(Cl)c(C(F)(F)F)c1)N1CCc2ccc(F)cc2C1 [Compound 32, N-(4-Chloro-3-(trifluoromethyl)phenyl)-7-fluoro-3,4-dihydroisoquinoline-2(1H)-carboxamide]",0.5 to 5

# Next, values leading:
row,IC50 [µM],Compound
1,> 5,"O=C(Nc1ccc(C(F)(F)F)cc1)N1CCc2ncncc2C1 [Compound 4, N-(4-(Trifluoromethyl)phenyl)-7,8-dihydropyrido[4,3-d]pyrimidine-6(5H)-carboxamide]"
2,0.5 to 5,"O=C(Nc1ccc(Cl)c(C(F)(F)F)c1)N1CCc2cncnc2C1 [Compound 7, N-(4-Chloro-3-(trifluoromethyl)phenyl)-5,8-dihydropyrido[3,4-d]pyrimidine-7(6H)-carboxamide]"
3,0.5 to 5,"O=C(Nc1ccc(C(F)(F)F)c(Cl)c1)N1CCc2ccccc2C1 [Compound 10, N-(3-Chloro-4-(trifluoromethyl)phenyl)-3,4-dihydroisoquinoline-2(1H)-carboxamide]"
4,0.5 to 5,"O=C(Nc1ccc(Cl)c(Cl)c1)N1CCc2cnccc2C1 [Compound 12, N-(3,4-Dichlorophenyl)-3,4-dihydro-2,6-naphthyridine-2(1H)-carboxamide]"
5,0.5 to 5,"O=C(Nc1ccc(Cl)c(Cl)c1)N1CCc2ccncc2C1 [Compound 15, N-(3,4-Dichlorophenyl)-3,4-dihydro-2,7-naphthyridine-2(1H)-carboxamide]"
6,0.5 to 5,"O=C(Nc1ccc(C(F)(F)F)c(Cl)c1)N1CCc2ccncc2C1 [Compound 17, N-(3-Chloro-4-(trifluoromethyl)phenyl)-3,4-dihydro-2,7-naphthyridine-2(1H)-carboxamide]"
7,0.5 to 5,"O=C(Nc1ccc(C(F)(F)F)c(Cl)c1)N1CCc2cccnc2C1 [Compound 19, N-(3-Chloro-4-(trifluoromethyl)phenyl)-5,8-dihydro-1,7-naphthyridine-7(6H)-carboxamide]"
8,> 5,"O=C(Nc1ccc(C(F)(F)F)c(Cl)c1)N1CCc2ncccc2C1 [Compound 22, N-(3-Chloro-4-(trifluoromethyl)phenyl)-7,8-dihydro-1,6-naphthyridine-6(5H)-carboxamide]"
9,> 5,"O=C(Nc1ccc(Cl)c(Cl)c1)N1CCc2nccnc2C1 [Compound 23, N-(3,4-Dichlorophenyl)-7,8-dihydropyrido[3,4-b]pyrazine-6(5H)-carboxamide]"
10,0.5 to 5,"O=C(Nc1ccc(C(F)(F)F)c(Cl)c1)N1CCc2oncc2C1 [Compound 26, N-(3-Chloro-4-(trifluoromethyl)phenyl)-6,7-dihydroisoxazolo[4,5-c]pyridine-5(4H)-carboxamide]"
11,< 0.5,"O=C(Nc1ccc(C(F)(F)F)c(Cl)c1)N1CCc2ccc(Cl)cc2C1 [Compound 30, 7-Chloro-N-(3-chloro-4-(trifluoromethyl)phenyl)-3,4-dihydroisoquinoline-2(1H)-carboxamide]"
